Five compounds from patent publication US10072008B2, “Spiro-isoquinoline-3,4′-piperidine compounds having activity against pain” (LABORATORIOS DEL DR. ESTEVE S.A., priority 2015, dated 2018) can be followed below.

Sequence of human σ1 receptor (Q99720 whole entry): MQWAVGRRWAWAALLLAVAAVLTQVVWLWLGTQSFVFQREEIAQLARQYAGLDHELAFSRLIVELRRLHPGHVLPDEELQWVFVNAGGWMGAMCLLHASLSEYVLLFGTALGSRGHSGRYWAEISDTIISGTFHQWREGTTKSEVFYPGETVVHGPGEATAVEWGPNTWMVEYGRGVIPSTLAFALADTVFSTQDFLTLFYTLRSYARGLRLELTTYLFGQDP

This assay concerns the target human σ1 receptor (Homo sapiens (Human), UniProt Q99720). Nature of the assay: Human σ1 receptor radioligand assay ([3H](+)-pentazocine, transfected HEK-293 membranes). The following applies: binding to the σ1 receptor expressed as Ki, [3H](+)-pentazocine 5 nM. As to the method: Human σ1 Receptor Radioligand Assay
To investigate binding properties of test compounds to human σ1 receptor, transfected HEK-293 membranes and [^3H](+)-pentazocine (Perkin Elmer, NET-1056), as the radioligand, were used. The assay was carried out with 7 μg of membrane suspension, 5 nM of [^3H](+)-pentazocine in either absence or presence of either buffer or 10 μM Haloperidol for total and non-specific binding, respectively. Binding buffer contained Tris-HCl 50 mM at pH 8. Plates were incubated at 37° C. for 120 minutes. After the incubation period, the reaction mix was then transferred to MultiScreen HTS, FC plates (Millipore), filtered and plates were washed 3 times with ice-cold 10 mM Tris-HCL (pH 7.4). Filters were dried and counted at approximately 40% efficiency in a MicroBeta scintillation counter (Perkin-Elmer) using EcoScint liquid scintillation cocktail
As usually defined, the Ki is a measure of affinity in units of concentration, obtained from inhibition or displacement. Turning to `O=C1NC2(CCN(CCc3ccccc3)CC2)Cc2ccccc21` [Example 1, 1′-(2-Phenylethyl)-2,4-dihydro-1H-spiro[isoquinoline-3,4′-piperidin]-1-one], the Ki was < 100 nM.
Regarding `O=C1NC2(CCN(Cc3ccccc3)CC2)Cc2ccccc21` [Example 2, 1′-benzyl-2,4-dihydro-1H-spiro[isoquinoline-3,4′-piperidin]-1-one], the Ki was < 100 nM.
With `c1ccc(CN2CCC3(CC2)Cc2ccccc2CN3)cc1` [Example 4, 1′-benzyl-2,4-dihydro-1H-spiro[isoquinoline-3,4′-piperidine]], the Ki is < 100 nM.
For the compound `CN1Cc2ccccc2CC12CCN(Cc1ccccc1)CC2` [Example 6, 1′-Benzyl-2-methyl-2,4-dihydro-1H-spiro[isoquinoline-3,4′-piperidine]], the Ki was < 100 nM.
Then `CN1Cc2ccccc2CC12CCN(CCN1CCOCC1)CC2` [Example 7, 4-(2-(2-Methyl-2,4-dihydro-1H-spiro[isoquinoline-3,4′-piperidine]-1′-yl)ethyl)morpholine], with < 500 nM.
